Results reported in PubChem BioAssay AID328 (DTP/NCI, 2004).
Toxic doses and inconclusive results are not listed. The calls were made as follows: active = survival T/C of 150% or more; inactive = T/C below 125% in these data.

Test system: BDF1 mice, P388 leukemia ip, median survival T/C
Experiment: NCI In Vivo Anticancer Drug Screen. Data for tumor model P388 Leukemia (intraperitoneal) in B6D2F1 (BDF1) mice
Conditions: endpoint: median survival time, higher = longer survival
Procedure, shortened: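 Survival ratio, drug arm over vehicle arm, in mice with a transplanted tumour.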

[1] = dose: 100.0 mg/kg/injection, schedule: Q04DX003 (ip), vehicle: saline
[2] = dose: 200.0 mg/kg/injection, schedule: Q04DX003 (ip), vehicle: saline
[3] = dose: 50.0 mg/kg/injection, schedule: Q01DX009 (ip), vehicle: saline
[4] = dose: 100.0 mg/kg/injection, schedule: Q01DX009 (ip), vehicle: saline
[5] = dose: 200.0 mg/kg/injection, schedule: Q01DX009 (ip), vehicle: saline
[6] = dose: 400.0 mg/kg/injection, schedule: Q01DX009 (ip), vehicle: saline
[7] = dose: 400.0 mg/kg/injection, schedule: Q04DX003 (ip), vehicle: saline
[8] = dose: 100.0 mg/kg/injection, schedule: Q01DX009 (ip), vehicle: saline with Tween-80
[9] = dose: 200.0 mg/kg/injection, schedule: Q01DX009 (ip), vehicle: saline with Tween-80

Measured: T/C

ClCc1ccncc1
inactive: [1] 100 % of control | [2] 100 % of control

CCCCCCCCCCCCCCCc1ccc(C(=O)C[n+]2ccccc2)cc1
inactive: dose: 3.13 mg/kg/injection, schedule: Q01DX009 (ip), vehicle: saline with Tween-80 100 % of control | dose: 6.25 mg/kg/injection, schedule: Q01DX009 (ip), vehicle: saline with Tween-80 104 % of control | dose: 12.5 mg/kg/injection, schedule: Q01DX009 (ip), vehicle: saline with Tween-80 118 % of control | dose: 16.5 mg/kg/injection, schedule: Q04DX003 (ip), vehicle: saline with Tween-80 122 % of control

Nc1cc(Cl)ccc1O
inactive: [3] 114 % of control | [4] 97 % of control | [5] 116 % of control

CSc1cccc(NC(=O)OCCOc2ccc(Br)cc2)c1
inactive: dose: 12.5 mg/kg/injection, schedule: Q01DX009 (ip), vehicle: Klucel (hydroxypropylcellulose) (HPC) 109 % of control | dose: 25.0 mg/kg/injection, schedule: Q01DX009 (ip), vehicle: Klucel (hydroxypropylcellulose) (HPC) 105 % of control | dose: 50.0 mg/kg/injection, schedule: Q01DX009 (ip), vehicle: Klucel (hydroxypropylcellulose) (HPC) 102 % of control

COc1ccc(NC(=O)C(C)C(C)=O)cc1 (stereo unspecified)
inactive: dose: 12.5 mg/kg/injection, schedule: Q01DX009 (ip), vehicle: saline 91 % of control | dose: 25.0 mg/kg/injection, schedule: Q01DX009 (ip), vehicle: saline 94 % of control | dose: 25.0 mg/kg/injection, schedule: Q04DX003 (ip), vehicle: saline 102 % of control | [3] 98 % of control | dose: 50.0 mg/kg/injection, schedule: Q04DX003 (ip), vehicle: saline 93 % of control | [4] 116 % of control | [1] 100 % of control | [5] 100 % of control | [2] 109 % of control | [6] 108 % of control | [7] 111 % of control

C=C(CNC(C)(C)C)C(=O)c1ccccc1
inactive: dose: 3.13 mg/kg/injection, schedule: Q01DX009 (ip), vehicle: saline 116 % of control | dose: 6.25 mg/kg/injection, schedule: Q01DX009 (ip), vehicle: saline 116 % of control

CC1(O)CCC2C3CCC4CC(=O)CCC4(C)C3(F)C(O)CC21C (stereo unspecified)
inactive: dose: 100.0 mg/kg/injection, schedule: Q01DX001 (ip), vehicle: saline 100 % of control | [4] 90 % of control | [1] 104 % of control | dose: 200.0 mg/kg/injection, schedule: Q01DX001 (ip), vehicle: saline 86 % of control | [5] 109 % of control | [2] 104 % of control | dose: 400.0 mg/kg/injection, schedule: Q01DX001 (ip), vehicle: saline 95 % of control | [6] 113 % of control | [7] 104 % of control

CCOC(=O)C1SC(=S)N(C)C1=O (stereo unspecified)
inactive: dose: 50.0 mg/kg/injection, schedule: Q01DX009 (ip), vehicle: saline with Tween-80 94 % of control | [8] 100 % of control | [9] 100 % of control

CN1CCCN(C)CC1
inactive: dose: 75.0 mg/kg/injection, schedule: Q01DX009 (ip), vehicle: saline with Tween-80 103 % of control | dose: 100.0 mg/kg/injection, schedule: Q04DX003 (ip), vehicle: saline with Tween-80 100 % of control | dose: 150.0 mg/kg/injection, schedule: Q01DX009 (ip), vehicle: saline with Tween-80 119 % of control | dose: 200.0 mg/kg/injection, schedule: Q04DX003 (ip), vehicle: saline with Tween-80 95 % of control | dose: 300.0 mg/kg/injection, schedule: Q01DX009 (ip), vehicle: saline with Tween-80 107 % of control | dose: 400.0 mg/kg/injection, schedule: Q04DX003 (ip), vehicle: saline with Tween-80 112 % of control

Oc1ccc(Nc2ccnc3cc(Cl)ccc23)cc1CN(CCCl)CCCl
active: dose: 1.25 mg/kg/injection, schedule: Q01DX009 (ip), vehicle: saline 177 % of control | dose: 2.5 mg/kg/injection, schedule: Q01DX009 (ip), vehicle: saline 194 % of control | dose: 3.3 mg/kg/injection, schedule: Q04DX003 (ip), vehicle: saline 163 % of control | dose: 5.0 mg/kg/injection, schedule: Q01DX009 (ip), vehicle: saline 150 % of control | dose: 5.0 mg/kg/injection, schedule: Q04DX003 (ip), vehicle: saline 163 % of control | dose: 10.0 mg/kg/injection, schedule: Q04DX003 (ip), vehicle: saline with Tween-80 160 % of control

CCOC(=O)C(Cc1ccccc1Cl)(Cc1ccccc1Cl)c1ccccc1
inactive: [8] 106 % of control | [9] 100 % of control
